Data set [1] is described as follows: Evaluation of solubility in specific solvents at 30° C. The format is physicochemical. Here is the method: The oligothiophene A (hexamer) was dissolved in each of toluene, xylene, ethylbenzene, mesitylene, cyclopentanone, cyclohexanone, methyl chloride, carbon tetrachloride, chlorobenzene, dichlorobenzene, trichlorobenzene, nitrobenzene, methyl ethyl ketone, benzoic acid esters, anisole, phenetole, butyl phenyl ether, methoxytoluene, and benzyl ethyl ether at 30° C., and each solubility was determined. […] In Table 1, the mark o indicates the case where the solubilities of 0.1% by weight and 0.3% by weight for each solvent were observed, and the mark X indicates the other case.

The nature of data set [2]: Evaluation of crystallinity of film by X-ray diffractometry. The format is physicochemical. The following applies: for Crystallinity of Film: In-Plane X-ray diffractometry of film. As to the method: X-ray diffractometry was conducted for the oligothiophene film formed of the oligothiophene A (hexamer) prepared in [Evaluation of Ionization Potential] using a RINT-2000/PC available from Rigaku Corporation.

The nature of data set [3]: Evaluation of ionization potential of film by photoelectron spectrometer. The format is physicochemical. The following applies: film spin-coated from chloroform on quartz substrate (α-6T: film deposited under vacuum); solid state. As to the method:
The ionization potential is preferably determined by the method of measuring a sample in a solid state through photoelectron spectroscopy. Examples of the simple devices include a photoelectron spectrometer, model AC-1 (or its successor device) available from Riken Keiki Co., Ltd.
The oligothiophene A (hexamer) (50 mg) prepared in Synthesis 4 was dissolved in chloroform (1 mL) to prepare a solution. This solution was spin-coated on a 2.5 by 2.5 cm^2 quartz substrate available from Furuuchi Chemical Corporation at 1000 rpm. A satisfactory film was produced. The ionization potential (Ip) of this film was determined with a photoelectron spectrometer Model PCR-101 available from Sumitomo Heavy Industries Advanced Machinery. As a reference, an α-6T film deposited on a quartz substrate under vacuum was used (See Comparative Example 1 described below). FIG. 4 is a graph of the ionization potentials observed. The ionization potential (Ip) of the oligothiophene A (hexamer) was 5.34 eV, while that of α-6T was 4.7 eV.

The conditions of data set [4]: usual value of representative thiophene materials; cited from earlier work.
Where [5] appears, read: 30° C., toluene, xylene, ethylbenzene, mesitylene, cyclopentanone, cyclohexanone and other listed solvents.

Where two headings read alike, the source gives them in different places.

As to `CCCCCCc1ccc(-c2ccc(-c3ccc(-c4ccc(-c5sc(-c6cc(-c7ccc(CC)cc7)c(-c7ccc(-c8ccc(-c9ccc(-c%10ccc(CCCCCC)s%10)s9)s8)s7)s6)cc5-c5ccc(CC)cc5)s4)s3)s2)s1` [Example 3], in data set [1], the “Solubility in Specific Solvents 0.1% by weight” value is on record as “◯” and the “Solubility in Specific Solvents 0.3% by weight” value was “◯”. In addition, the “Crystallinity of Film” value in data set [2] is given as “◯”. The “Ionization Potential” value in data set [3] is 5.26 eV.
Turning to `CCCCCCc1ccc(-c2ccc(-c3ccc(-c4ccc(-c5sc(-c6ccc(CCCCCC)s6)cc5-c5ccc(CC)cc5)s4)s3)s2)s1` [Example 5], in data set [1], the “Solubility in Specific Solvents 0.1% by weight” value is “◯” and the “Solubility in Specific Solvents 0.3% by weight” value is “◯”. For the same compound, the “Crystallinity of Film” value in data set [2] was “◯”. For the same compound, the “Ionization Potential” value in data set [3] is given as 5.24 eV.
Take `CCCCCCc1ccc(-c2ccc(-c3sc(-c4cc(-c5ccc(CC)cc5)c(-c5ccc(-c6ccc(CCCCCC)s6)s5)s4)cc3-c3ccc(CC)cc3)s2)s1` [Example 1]: in data set [1] (setting [5]), the “Solubility in Specific Solvents 0.1% by weight” value is listed as “◯” and the “Solubility in Specific Solvents 0.3% by weight” value is on record as “◯”. In addition, the “Crystallinity of Film” value in data set [2] is listed as “◯”. Moreover, the “Crystallinity of film (in words)” value in data set [2] (In-Plane X-ray diffractometry of spin-coated film) was “crystalline semiconductor layer”. Besides, in data set [3], the “Ionization Potential” value was 5.34 eV.
For the compound `CCCCCCc1ccc(-c2ccc(-c3ccc(-c4ccc(-c5ccc(-c6sc(-c7cc(-c8ccc(CC)cc8)c(-c8ccc(-c9ccc(-c%10ccc(-c%11ccc(-c%12ccc(CCCCCC)s%12)s%11)s%10)s9)s8)s7)cc6-c6ccc(CC)cc6)s5)s4)s3)s2)s1` [Example 6], in data set [1] (setting [5]), the “Solubility in Specific Solvents 0.1% by weight” value was “◯” and the “Solubility in Specific Solvents 0.3% by weight” value is reported as “◯”. In addition, the “Crystallinity of Film” value in data set [2] was “◯”. For the same compound, the “Ionization Potential” value in data set [3] worked out at 5.18 eV.
On to `CCCCCCc1ccc(-c2ccc(-c3ccc(-c4sc(-c5cc(-c6ccc(CC)cc6)c(-c6ccc(-c7ccc(-c8ccc(CCCCCC)s8)s7)s6)s5)cc4-c4ccc(CC)cc4)s3)s2)s1` [Example 2], for which, in data set [1], the “Solubility in Specific Solvents 0.1% by weight” value was “◯” and the “Solubility in Specific Solvents 0.3% by weight” value is reported as “◯”. In addition, the “Crystallinity of Film” value in data set [2] was “◯”. Moreover, the “Ionization Potential” value in data set [3] amounted to 5.24 eV.
With `c1csc(-c2ccc(-c3ccc(-c4ccc(-c5ccc(-c6cccs6)s5)s4)s3)s2)c1` [α-6T, α-sezithiophene, reference compound], in data set [1], the “Solubility in Specific Solvents 0.1% by weight” value was “◯” and the “Solubility in Specific Solvents 0.3% by weight” value is “◯”. The “Crystallinity of Film” value in data set [2] is reported as “◯”. Moreover, in data set [3], the “Ionization Potential” value came to 4.7 eV. The “ionization potential (Ip)” value in data set [4] was “about 4.7 eV”.
Turning to `CCCCCCc1ccc(-c2cc(-c3ccc(CC)cc3)c(-c3ccc(-c4ccc(-c5ccc(-c6sc(-c7cc(-c8ccc(CC)cc8)c(-c8ccc(-c9ccc(-c%10ccc(-c%11sc(-c%12ccc(CCCCCC)s%12)cc%11-c%11ccc(CC)cc%11)s%10)s9)s8)s7)cc6-c6ccc(CC)cc6)s5)s4)s3)s2)s1` [Example 7], in data set [1], the “Solubility in Specific Solvents 0.1% by weight” value was “◯” and the “Solubility in Specific Solvents 0.3% by weight” value was “◯”. Also, the “Crystallinity of Film” value in data set [2] is listed as “◯”. Further, the “Ionization Potential” value in data set [3] is 5.46 eV.

The values are drawn from patent publication US20090159876A1, “ORGANIC SEMICONDUCTOR MATERIAL AND ORGANIC FIELD EFFECT TRANSISTOR” (MITSUBISHI CHEMICAL CORPORATION, priority 2005, published 2009).
